Results: article PMC3914206

What was measured:
panel of 442 kinases [1] = target: T1, panel of 442 kinases (Homo sapiens, UniProt Q8WXR4); type: binding; parameters: KINOMEscan: ABL1(F317L)-phosphorylated / KINOMEscan: ABL1(H396P)-nonphosphorylated / KINOMEscan: ABL1(H396P)-phosphorylated / KINOMEscan: ABL1(M351T)-phosphorylated / KINOMEscan: ABL1(T315I)-phosphorylated / KINOMEscan: ABL1-nonphosphorylated / KINOMEscan: ABL1-phosphorylated / KINOMEscan: ACVR2A / KINOMEscan: ACVR2B / KINOMEscan: ADCK3 / KINOMEscan: ADCK4 / KINOMEscan: AKT1 / KINOMEscan: AKT3 / KINOMEscan: ALK / KINOMEscan: ARK5 / KINOMEscan: AURKA / KINOMEscan: AURKC / KINOMEscan: BIKE / KINOMEscan: BMPR1A / KINOMEscan: BMPR1B / KINOMEscan: BMX / KINOMEscan: BRK / KINOMEscan: BRSK1 / KINOMEscan: BRSK2 / KINOMEscan: CAMK1 / KINOMEscan: CAMK1D / KINOMEscan: CAMK1G / KINOMEscan: CAMK2A / KINOMEscan: CAMK2B / KINOMEscan: AAK1 / KINOMEscan: CAMK2D / KINOMEscan: CAMK2G / KINOMEscan: ABL1(F317I)-nonphosphorylated / KINOMEscan: ABL1(F317I)-phosphorylated / KINOMEscan: ABL1(F317L)-nonphosphorylated: unit: % Ctrl; conditions: Compound Concentration 10 µM
T1 construct: purchased KINOMEscan
T1 sequence (Q8WXR4 1-1341): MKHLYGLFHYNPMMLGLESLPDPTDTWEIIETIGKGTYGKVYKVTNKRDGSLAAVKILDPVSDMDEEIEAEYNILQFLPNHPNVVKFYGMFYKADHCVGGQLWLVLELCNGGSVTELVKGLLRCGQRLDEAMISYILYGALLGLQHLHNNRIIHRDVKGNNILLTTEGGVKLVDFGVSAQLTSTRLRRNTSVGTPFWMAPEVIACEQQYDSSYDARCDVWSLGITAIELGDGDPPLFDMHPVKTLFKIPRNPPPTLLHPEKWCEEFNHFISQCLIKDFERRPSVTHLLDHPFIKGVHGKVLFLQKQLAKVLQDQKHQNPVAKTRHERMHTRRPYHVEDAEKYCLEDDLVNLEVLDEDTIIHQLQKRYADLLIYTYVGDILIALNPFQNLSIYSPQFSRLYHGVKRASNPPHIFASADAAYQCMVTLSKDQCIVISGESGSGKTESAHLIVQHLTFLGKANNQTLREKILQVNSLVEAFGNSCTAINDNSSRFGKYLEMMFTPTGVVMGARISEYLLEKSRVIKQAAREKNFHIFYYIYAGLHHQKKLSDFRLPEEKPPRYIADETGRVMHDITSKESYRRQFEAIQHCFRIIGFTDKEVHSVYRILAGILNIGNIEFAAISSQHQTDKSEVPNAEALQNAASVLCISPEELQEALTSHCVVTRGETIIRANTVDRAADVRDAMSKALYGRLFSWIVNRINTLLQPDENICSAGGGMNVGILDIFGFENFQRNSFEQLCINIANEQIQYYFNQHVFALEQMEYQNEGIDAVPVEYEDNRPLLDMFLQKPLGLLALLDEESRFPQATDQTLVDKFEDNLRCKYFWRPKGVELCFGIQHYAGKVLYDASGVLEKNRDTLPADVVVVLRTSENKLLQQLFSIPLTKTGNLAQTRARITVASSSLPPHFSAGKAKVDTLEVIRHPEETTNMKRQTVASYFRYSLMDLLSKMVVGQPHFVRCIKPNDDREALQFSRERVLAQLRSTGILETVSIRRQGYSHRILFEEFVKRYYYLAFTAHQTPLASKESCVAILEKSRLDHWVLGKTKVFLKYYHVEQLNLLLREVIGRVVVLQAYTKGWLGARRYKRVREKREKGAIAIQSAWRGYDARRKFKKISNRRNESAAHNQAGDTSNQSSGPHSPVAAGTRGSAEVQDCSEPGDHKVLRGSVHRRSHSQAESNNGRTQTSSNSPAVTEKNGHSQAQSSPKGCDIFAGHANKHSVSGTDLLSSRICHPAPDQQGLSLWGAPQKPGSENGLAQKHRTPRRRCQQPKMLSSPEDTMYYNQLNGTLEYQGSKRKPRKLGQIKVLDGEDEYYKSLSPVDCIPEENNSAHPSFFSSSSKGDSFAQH
Excerpt: (§1) We assessed the selectivity of members of this scaffold using the KINOMEscan methodology across a near comprehensive panel of 442 kinases [[18,27]].

panel of 442 kinases [2] = target: T2, panel of 442 kinases (Homo sapiens, UniProt P00519, F317L); type: binding; parameters: KINOMEscan: ABL1(F317L)-phosphorylated / KINOMEscan: ABL1(H396P)-nonphosphorylated / KINOMEscan: ABL1(H396P)-phosphorylated / KINOMEscan: ABL1(M351T)-phosphorylated / KINOMEscan: ABL1(T315I)-phosphorylated / KINOMEscan: ABL1-nonphosphorylated / KINOMEscan: ABL1-phosphorylated / KINOMEscan: ACVR2A / KINOMEscan: ACVR2B / KINOMEscan: ADCK3 / KINOMEscan: ADCK4 / KINOMEscan: AKT1 / KINOMEscan: AKT3 / KINOMEscan: ALK / KINOMEscan: ARK5 / KINOMEscan: AURKA / KINOMEscan: AURKC / KINOMEscan: BIKE / KINOMEscan: BMPR1A / KINOMEscan: BMPR1B / KINOMEscan: BMX / KINOMEscan: BRK / KINOMEscan: BRSK1 / KINOMEscan: BRSK2 / KINOMEscan: CAMK1 / KINOMEscan: CAMK1D / KINOMEscan: CAMK1G / KINOMEscan: CAMK2A / KINOMEscan: CAMK2B / KINOMEscan: AAK1 / KINOMEscan: CAMK2D / KINOMEscan: CAMK2G / KINOMEscan: ABL1(F317I)-nonphosphorylated / KINOMEscan: ABL1(F317I)-phosphorylated / KINOMEscan: ABL1(F317L)-nonphosphorylated: unit: % Ctrl; conditions: Compound Concentration 10 µM
T2 construct: purchased KINOMEscan
Excerpt: as §1

T2 sequence (P00519 whole entry F317L): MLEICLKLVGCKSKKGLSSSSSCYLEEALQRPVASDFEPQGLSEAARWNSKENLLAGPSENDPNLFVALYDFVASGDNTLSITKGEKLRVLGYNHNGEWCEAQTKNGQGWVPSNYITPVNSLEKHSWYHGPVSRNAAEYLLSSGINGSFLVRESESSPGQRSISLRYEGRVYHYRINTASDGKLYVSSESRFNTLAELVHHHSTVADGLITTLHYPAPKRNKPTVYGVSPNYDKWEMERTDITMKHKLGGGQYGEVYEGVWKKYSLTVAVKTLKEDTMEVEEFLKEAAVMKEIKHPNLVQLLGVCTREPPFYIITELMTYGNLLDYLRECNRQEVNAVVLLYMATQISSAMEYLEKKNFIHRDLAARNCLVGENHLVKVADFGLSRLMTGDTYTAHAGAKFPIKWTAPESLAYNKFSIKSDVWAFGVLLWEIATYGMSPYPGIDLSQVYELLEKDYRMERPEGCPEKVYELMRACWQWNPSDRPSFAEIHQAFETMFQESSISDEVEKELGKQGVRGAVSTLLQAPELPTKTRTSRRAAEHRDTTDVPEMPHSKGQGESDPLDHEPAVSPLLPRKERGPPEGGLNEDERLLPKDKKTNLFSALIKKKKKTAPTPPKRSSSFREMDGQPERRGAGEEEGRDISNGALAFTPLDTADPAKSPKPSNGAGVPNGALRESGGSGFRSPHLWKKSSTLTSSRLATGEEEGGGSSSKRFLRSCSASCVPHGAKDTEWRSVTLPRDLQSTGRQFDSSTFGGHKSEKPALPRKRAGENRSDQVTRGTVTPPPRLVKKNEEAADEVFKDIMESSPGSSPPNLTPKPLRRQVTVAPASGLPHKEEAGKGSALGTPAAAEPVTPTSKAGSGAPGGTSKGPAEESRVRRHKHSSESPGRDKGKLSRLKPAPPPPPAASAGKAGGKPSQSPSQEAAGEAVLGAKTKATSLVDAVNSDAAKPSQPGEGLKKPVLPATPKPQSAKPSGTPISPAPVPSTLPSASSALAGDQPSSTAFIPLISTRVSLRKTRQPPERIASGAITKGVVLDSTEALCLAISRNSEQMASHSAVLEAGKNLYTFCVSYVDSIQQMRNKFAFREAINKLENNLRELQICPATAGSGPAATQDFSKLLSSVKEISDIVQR

For `COc1cc(C(=O)N2CCC(N3CCN(C)CC3)CC2)ccc1Nc1ncc2c(n1)N(C)c1ccccc1C(=O)N2C` [15 (LRRK2-IN-1)], the “KINOMEscan: MYO3B” value (panel of 442 kinases [1]) was 83, the “KINOMEscan: ABL1(F317L)-nonphosphorylated” value (panel of 442 kinases [2]) was 14 and the “KINOMEscan: ABL1(F317L)-phosphorylated” value (panel of 442 kinases [2]) was 0.85.

For `CCOc1cc(C(=O)N2CCC(N3CCN(C)CC3)CC2)ccc1Nc1ncc2c(n1)N(C1CCCC1)c1ccccc1C(=O)N2C` [Compound 26], the “KINOMEscan: MYO3B” value (panel of 442 kinases [1]) was 100, the “KINOMEscan: ABL1(F317L)-nonphosphorylated” value (panel of 442 kinases [2]) was 71 and the “KINOMEscan: ABL1(F317L)-phosphorylated” value (panel of 442 kinases [2]) was 34.

In the case of `COc1cc(C(=O)N2CCC(N3CCN(C)CC3)CC2)ccc1Nc1ncc2c(n1)N1CCc3cccc(c31)C(=O)N2C` [Compound 24], the “KINOMEscan: MYO3B” value (panel of 442 kinases [1]) is reported as 76, the “KINOMEscan: ABL1(F317L)-nonphosphorylated” value (panel of 442 kinases [2]) is reported as 23 and the “KINOMEscan: ABL1(F317L)-phosphorylated” value (panel of 442 kinases [2]) is reported as 7.8.

For `COc1cc(C(=O)N2CCC(N3CCN(C)CC3)CC2)ccc1Nc1ncc2c(n1)N(C1CCCC1)c1ccccc1C(=O)N2C` [Compound 25, 11-cyclopentyl-2-((2-methoxy-4-(4-(4-methylpiperazin-1-yl)piperidine-1-carbonyl)phenyl)amino)-5-methyl-5H-benzo[e]pyrimido[5,4-b][1,4]diazepin-6(11H)-one], the “KINOMEscan: MYO3B” value (panel of 442 kinases [1]) was 100, the “KINOMEscan: ABL1(F317L)-nonphosphorylated” value (panel of 442 kinases [2]) was 15 and the “KINOMEscan: ABL1(F317L)-phosphorylated” value (panel of 442 kinases [2]) was 9.1.
